Experimental data published in ChEMBL document CHEMBL1201862, “PubChem BioAssay data set” (2004).
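Five concentrations, 48 hours, 96-well plates. Abbreviation: GI50, concentration required for 50% inhibition of growth.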 Active and inactive are the calls of the source. Rule as the data show it: active = GI50 up to about 1.1 µM and inactive = higher.

Assays:
Experiment in all cases: inhibition of tumour cell growth, NCI panel, 48 h
SK-MEL-5 = tested on: SK-MEL-5
NCI/ADR-RES = tested on: NCI/ADR-RES
MDA-N = tested on: MDA-N
SK-MEL-28 = tested on: SK-MEL-28
NCI-H522 = tested on: NCI-H522
UO-31 = tested on: UO-31
MDA-MB-435 = tested on: MDA-MB-435
Malme-3M = tested on: Malme-3M
SF-268 = tested on: SF-268
A498 = tested on: A498
MCF7 = tested on: MCF7
COLO 205 = tested on: COLO 205
SN12C = tested on: SN12C
PC-3 = tested on: PC-3
BT-549 = tested on: BT-549
HOP-92 = tested on: HOP-92
Hs-578T = tested on: Hs-578T
RXF 393 = tested on: RXF 393
HCT-116 = tested on: HCT-116
NCI-H460 = tested on: NCI-H460

Measured: GI50

COc1ccc2cc1Oc1ccc(cc1)CC1c3c(cc(OC)c4c3Oc3cc5c(cc3O4)CCNC5C2)CCN1C (centres undefined)
inactive: SK-MEL-5 2.06 µM | NCI/ADR-RES 1.92 µM | MDA-N 1.83 µM | SK-MEL-28 1.88 µM | NCI-H522 1.7 µM | UO-31 15.6 µM | MDA-MB-435 1.8 µM | Malme-3M 2.09 µM | SF-268 1.95 µM | A498 2.1 µM | MCF7 1.85 µM | COLO 205 1.72 µM | SN12C 1.91 µM | PC-3 1.88 µM | BT-549 2.77 µM | HOP-92 2.45 µM | Hs-578T 2.19 µM

O=C(NC(Cc1ccc(Br)cc1)C(=O)O)c1ccc(I)cc1 (centres undefined)
inactive: RXF 393 > 100 µM | SK-MEL-5 > 100 µM | NCI/ADR-RES > 100 µM | HCT-116 > 100 µM | SK-MEL-28 > 100 µM | NCI-H522 > 82.6 µM | UO-31 > 100 µM | Malme-3M 83.4 µM | NCI-H460 > 100 µM | SF-268 > 100 µM | A498 > 100 µM | MCF7 > 100 µM | COLO 205 > 100 µM | SN12C > 100 µM | HOP-92 65.3 µM

S=P1(Sc2ccccc2)Oc2ccc3ccccc3c2-c2c(ccc3ccccc23)O1
inactive: RXF 393 > 83 µM | SK-MEL-5 > 100 µM | NCI/ADR-RES > 100 µM | HCT-116 > 100 µM | SK-MEL-28 > 78.5 µM | NCI-H522 49.9 µM | UO-31 > 100 µM | Malme-3M > 100 µM | NCI-H460 > 100 µM | SF-268 > 100 µM | A498 > 84.7 µM | MCF7 71.8 µM | COLO 205 > 100 µM | SN12C > 100 µM | HOP-92 > 100 µM

O=C(CSCC(=O)N/N=C/c1cccc(C(F)(F)F)c1)N/N=C/c1cccc(C(F)(F)F)c1
inactive: RXF 393 > 100 µM | SK-MEL-5 > 100 µM | NCI/ADR-RES > 100 µM | SK-MEL-28 > 100 µM | NCI-H522 > 100 µM | UO-31 > 100 µM | MDA-MB-435 > 100 µM | Malme-3M > 100 µM | SF-268 > 100 µM | A498 > 100 µM | MCF7 > 100 µM | PC-3 > 100 µM | BT-549 > 100 µM | HOP-92 > 100 µM | Hs-578T > 100 µM

Cc1[nH]c(=O)nc(S)c1C(=O)Nc1cccc2cc3ccccc3cc12
inactive: RXF 393 > 100 µM | SK-MEL-5 > 100 µM | NCI/ADR-RES > 100 µM | HCT-116 > 100 µM | MDA-N > 10 µM | SK-MEL-28 > 100 µM | UO-31 > 100 µM | MDA-MB-435 > 100 µM | Malme-3M > 100 µM | NCI-H460 > 100 µM | SF-268 > 100 µM | A498 > 100 µM | MCF7 > 100 µM | COLO 205 > 100 µM | SN12C > 100 µM | PC-3 > 100 µM | BT-549 > 100 µM | HOP-92 > 100 µM | Hs-578T > 100 µM

Nc1nc2c(c(-c3ccc(F)cc3)n1)COC/C2=C\c1ccc(F)cc1
inactive: RXF 393 52.7 µM | SK-MEL-5 56 µM | NCI/ADR-RES 65.8 µM | MDA-N > 100 µM | SK-MEL-28 > 100 µM | NCI-H522 10.8 µM | UO-31 14.7 µM | MDA-MB-435 41.2 µM | Malme-3M 12.7 µM | NCI-H460 15.5 µM | SF-268 14.5 µM | A498 > 100 µM | MCF7 28.1 µM | COLO 205 > 100 µM | SN12C > 100 µM | PC-3 43.3 µM | BT-549 43.5 µM | HOP-92 30.4 µM | Hs-578T 33.4 µM

CCn1nc(C)c2c1C(=O)NC(C)C(=O)N2 (centres undefined)
inactive: RXF 393 > 100 µM | SK-MEL-5 > 100 µM | HCT-116 > 100 µM | MDA-N > 100 µM | SK-MEL-28 > 100 µM | NCI-H522 > 100 µM | UO-31 > 100 µM | MDA-MB-435 > 100 µM | NCI-H460 > 100 µM | SF-268 > 100 µM | A498 > 100 µM | COLO 205 > 100 µM | SN12C 36.6 µM | PC-3 > 100 µM | BT-549 > 100 µM | HOP-92 > 100 µM | Hs-578T > 100 µM

CC1(O)C2(c3ccccc3)CCC[N+]1(C)CC2 (centres undefined)
inactive: RXF 393 > 100 µM | SK-MEL-5 > 100 µM | NCI/ADR-RES > 100 µM | HCT-116 > 100 µM | MDA-N > 100 µM | SK-MEL-28 > 100 µM | UO-31 > 100 µM | MDA-MB-435 > 100 µM | Malme-3M > 100 µM | NCI-H460 > 100 µM | A498 > 100 µM | MCF7 > 100 µM | COLO 205 > 100 µM | SN12C > 100 µM | PC-3 > 100 µM | BT-549 > 100 µM | HOP-92 > 100 µM | Hs-578T > 100 µM

COc1cc(C2S/C(=C/c3ccccc3)C(=O)N2c2ccc(NC(C)=O)cc2)cc(OC)c1OC (centres undefined)
inactive: RXF 393 17.5 µM | SK-MEL-5 13.1 µM | NCI/ADR-RES 23.4 µM | HCT-116 12.7 µM | MDA-N 19.3 µM | SK-MEL-28 30.8 µM | NCI-H522 10.1 µM | UO-31 24 µM | MDA-MB-435 18.2 µM | Malme-3M 22 µM | SF-268 17.9 µM | A498 21.4 µM | MCF7 23.9 µM | COLO 205 15.2 µM | SN12C 15.8 µM | PC-3 11.8 µM | BT-549 16.3 µM | HOP-92 20.2 µM | Hs-578T 21.2 µM
